Reference: ChEMBL document CHEMBL3039007, “Structure-based identification of OATP1B1/3 inhibitors” (Mol Pharmacol, 2013)

Tests used:
[1] = target: T1, Solute carrier organic anion transporter family member 1B3 (Homo sapiens, UniProt Q9NPD5); conditions: chinese hamster, cho, 10 µM
T1 sequence (Q9NPD5 whole entry): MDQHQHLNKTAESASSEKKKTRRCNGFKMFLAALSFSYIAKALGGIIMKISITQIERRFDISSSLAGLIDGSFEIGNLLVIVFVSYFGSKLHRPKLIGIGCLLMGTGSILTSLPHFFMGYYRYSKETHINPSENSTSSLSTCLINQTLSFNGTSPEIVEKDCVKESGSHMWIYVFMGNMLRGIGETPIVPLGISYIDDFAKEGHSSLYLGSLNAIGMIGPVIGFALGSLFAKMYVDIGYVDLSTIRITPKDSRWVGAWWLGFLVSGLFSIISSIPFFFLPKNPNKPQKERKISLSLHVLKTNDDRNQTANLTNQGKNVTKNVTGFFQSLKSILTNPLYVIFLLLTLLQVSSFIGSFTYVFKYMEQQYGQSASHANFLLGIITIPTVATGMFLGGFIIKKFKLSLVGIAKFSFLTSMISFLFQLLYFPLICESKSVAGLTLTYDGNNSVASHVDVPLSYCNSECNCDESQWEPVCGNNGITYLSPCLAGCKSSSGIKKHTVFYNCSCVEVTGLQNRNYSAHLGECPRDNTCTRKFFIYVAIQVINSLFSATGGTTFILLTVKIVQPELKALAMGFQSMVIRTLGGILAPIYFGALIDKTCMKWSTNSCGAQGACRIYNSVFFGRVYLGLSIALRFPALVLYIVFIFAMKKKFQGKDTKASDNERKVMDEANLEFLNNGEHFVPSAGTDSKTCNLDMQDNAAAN

[2] = target: T2, Solute carrier organic anion transporter family member 1B1 (Homo sapiens, UniProt Q9Y6L6); conditions: chinese hamster, cho, 10 µM
T2 sequence (Q9Y6L6 whole entry): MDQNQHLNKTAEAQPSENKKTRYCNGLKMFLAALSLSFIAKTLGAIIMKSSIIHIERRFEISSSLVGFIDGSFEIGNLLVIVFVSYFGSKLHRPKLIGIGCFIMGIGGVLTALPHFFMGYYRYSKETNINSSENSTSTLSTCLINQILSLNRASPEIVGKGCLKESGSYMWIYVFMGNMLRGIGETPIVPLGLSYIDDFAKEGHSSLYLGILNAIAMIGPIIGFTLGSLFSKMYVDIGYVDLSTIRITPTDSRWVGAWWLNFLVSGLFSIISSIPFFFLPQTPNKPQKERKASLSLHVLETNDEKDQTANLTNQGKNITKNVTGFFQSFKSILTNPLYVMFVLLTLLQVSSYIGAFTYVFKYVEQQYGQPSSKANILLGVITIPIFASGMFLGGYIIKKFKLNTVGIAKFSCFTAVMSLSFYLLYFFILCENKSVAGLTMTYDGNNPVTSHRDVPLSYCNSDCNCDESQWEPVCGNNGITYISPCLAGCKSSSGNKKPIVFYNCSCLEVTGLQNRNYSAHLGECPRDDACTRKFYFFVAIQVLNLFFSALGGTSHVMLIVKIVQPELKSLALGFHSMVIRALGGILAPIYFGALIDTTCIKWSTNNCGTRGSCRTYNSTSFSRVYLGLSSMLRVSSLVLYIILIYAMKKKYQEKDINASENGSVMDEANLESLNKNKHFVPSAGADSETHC

Row | SMILES | residual activity [1] [%] | residual activity [2] [%]
1 | CCn1cc(C(=O)O)c(=O)c2cnc(N3CCCC3)nc21 [PIROMIDIC ACID] | 101 | 79.57
2 | CN1C(C(=O)Nc2ccccn2)=C(O)c2ccccc2S1(=O)=O [PIROXICAM] | 87.59 | 68.52
3 | O=C(O)[C@H](O)[C@@](O)(Cc1ccc(O)cc1)C(=O)O [PISCIDIC ACID] | 90.37 | 92.25
4 | COc1cc([C@@H]2c3cc4c(cc3[C@H](O)[C@H]3COC(=O)[C@H]23)OCO4)cc(OC)c1OC [PODOFILOX] | 95.19 | 63.87
5 | CC(C)=CCc1c2c(c3occ(-c4ccc(O)c(O)c4)c(=O)c3c1O)C=CC(C)(C)O2 [POMIFERIN] | 87.87 | 114.2
6 | O=C(O)Cc1nn(Cc2ccc(Br)cc2F)c(=O)c2ccccc12 [PONALRESTAT] | 83.62 | 139.9
7 | CC(=O)Nc1ccc(OCC(O)CNC(C)C)cc1 (configuration not stated) [PRACTOLOL] | 99.03 | 107.1
8 | CS(=O)(=O)[O-].C[n+]1ccccc1C=NO [PRALIDOXIME MESYLATE] | 98.72 | 73.31
9 | CCCCOc1ccc(OCCCN2CCOCC2)cc1.Cl [PRAMOXINE HYDROCHLORIDE] | 99.07 | 112
10 | CC[C@H](C)C(=O)O[C@H]1C[C@H](O)C=C2C=C[C@H](C)[C@H](CC[C@@H](O)C[C@@H](O)CC(=O)[O-])[C@H]21.[Na+] [PRAVASTATIN SODIUM] | 102.8 | 100.3
11 | O=C(C1CCCCC1)N1CC(=O)N2CCc3ccccc3C2C1 (configuration not stated) [PRAZIQUANTEL] | 125.5 | 162.2
12 | COc1cc2nc(N3CCN(C(=O)c4ccco4)CC3)nc(N)c2cc1OC.Cl [PRAZOSIN HYDROCHLORIDE] | 90.48 | 99.58
13 | CC(=O)OCC(=O)[C@@]1(O)CC[C@H]2[C@@H]3CCC4=CC(=O)C=C[C@]4(C)[C@H]3[C@@H](O)C[C@@]21C [PREDNISOLONE ACETATE] | 106.7 | 63.69
14 | C[C@]12C=CC(=O)C=C1CC[C@@H]1[C@@H]2[C@@H](O)C[C@@]2(C)[C@H]1CC[C@]2(O)C(=O)CO [PREDNISOLONE] | 110.4 | 79.83
15 | CC(C)C[C@H](CN)CC(=O)O [PREGABALIN] | 101.4 | 120.6
16 | CC(C)=CCOc1cc2oc(=O)ccc2cc1O [PRENYLETIN] | 136 | 176.8
17 | CS(=O)(=O)O.OC(CCN1CCCCC1)(c1ccccc1)c1ccccc1 [PRIDINOL METHANESULFONATE] | 95.39 | 95.92
18 | CCCNC(C)C(=O)Nc1ccccc1C.Cl (configuration not stated) [PRILOCAINE HYDROCHLORIDE] | 74.6 | 87.24
19 | CCC1(c2ccccc2)C(=O)NCNC1=O [PRIMIDONE] | 90.17 | 78.09
20 | COC(=O)[C@]1(C)CC[C@]2(C)CC[C@]3(C)C4=CC=C5C(=CC(=O)C(O)=C5C)[C@]4(C)CC[C@@]3(C)[C@@H]2C1 [PRISTIMERIN] | 99.45 | 112.2
21 | COC(=O)[C@]1(C)CC[C@]2(C)CC[C@]3(C)C4=CCc5c(cc(OC(C)=O)c(OC(C)=O)c5C)[C@]4(C)CC[C@@]3(C)[C@@H]2C1 [PRISTIMEROL DIACETATE] | 83.45 | 94.14
22 | COC(=O)[C@]1(C)CC[C@]2(C)CC[C@]3(C)C4=CCc5c(cc(O)c(O)c5C)[C@]4(C)CC[C@@]3(C)[C@@H]2C1 [PRISTIMEROL] | 86.64 | 70.1
23 | CCCC(C(=O)OCCN(CC)CC)(c1ccccc1)c1ccccc1.Cl [PROADIFEN HYDROCHLORIDE] | 53.55 | 36.21

Row | SMILES | residual activity [1] [%] | residual activity [2] [%]
24 | CCCN(CCC)S(=O)(=O)c1ccc(C(=O)O)cc1 [PROBENECID] | 89.44 | 81.99
25 | CC(C)(Sc1cc(C(C)(C)C)c(O)c(C(C)(C)C)c1)Sc1cc(C(C)(C)C)c(O)c(C(C)(C)C)c1 [PROBUCOL] | 90.56 | 102.2
26 | CCN(CC)CCNC(=O)c1ccc(N)cc1.Cl [PROCAINAMIDE HYDROCHLORIDE] | 104.4 | 81.68
27 | CCN(CC)CCOC(=O)c1ccc(N)cc1.Cl [PROCAINE HYDROCHLORIDE] | 104.2 | 104.1
28 | CC(=O)[C@H]1CC[C@H]2[C@@H]3CCC4=CC(=O)CC[C@]4(C)[C@H]3CC[C@]12C [PROGESTERONE] | 92 | 52.43
29 | CCCN(CCC)C(=O)C(CCC(=O)O)NC(=O)c1ccccc1 (configuration not stated) [PROGLUMIDE] | 104.8 | 105
30 | CC(C)NC(=N)NC(=N)Nc1ccc(Cl)cc1.Cl [PROGUANIL HYDROCHLORIDE] | 114.8 | 77.71
31 | CN(C)CCCN1c2ccccc2Sc2ccccc21.Cl [PROMAZINE HYDROCHLORIDE] | 81.19 | 82.72
32 | CC(CN1c2ccccc2Sc2ccccc21)N(C)C.Cl (configuration not stated) [PROMETHAZINE HYDROCHLORIDE] | 86.93 | 69.15
33 | COc1nc(NC(C)C)nc(NC(C)C)n1 [PROMETON] | 102.5 | 114.4
34 | CSc1nc(NC(C)C)nc(NC(C)C)n1 [PROMETRYN] | 86.3 | 175.4
35 | CC(C)N(C(=O)CCl)c1ccccc1 [PROPACHLOR] | 110.5 | 110.8
36 | CCC(=O)Nc1ccc(Cl)c(Cl)c1 [PROPANIL] | 115.2 | 92.07
37 | CC(C)[N+](C)(CCOC(=O)C1c2ccccc2Oc2ccccc21)C(C)C.[Br-] [PROPANTHELINE BROMIDE] | 110.4 | 110.4
38 | C#CCOS(=O)OC1CCCCC1Oc1ccc(C(C)(C)C)cc1 (configuration not stated) [PROPARGITE] | 106 | 93.31
39 | CC(C)Nc1nc(Cl)nc(NC(C)C)n1 [PROPAZINE] | 91.55 | 110.4
40 | CCCn1cnc2c1c(=O)n(CCCCC(C)=O)c(=O)n2C [PROPENTOFYLLINE] | 110.4 | 126.3
41 | CNC(=O)Oc1ccccc1OC(C)C [PROPOXUR] | 109.6 | 104
42 | CC(C)NCC(O)COc1cccc2ccccc12.Cl (configuration not stated) [PROPRANOLOL HYDROCHLORIDE] | 95.98 | 59.88
43 | CCCc1cc(=O)[nH]c(=S)[nH]1 [PROPYLTHIOURACIL] | 90.71 | 79.91
44 | C=CC1=C(C)c2cc3[nH]c(cc4nc(cc5[nH]c(cc1n2)c(C)c5CCC(=O)O)C(CCC(=O)O)=C4C)c(C)c3C=C [PROTOPORPHYRIN] | 94.63 | 49.56
45 | CC[C@@H](C)C(=O)O[C@H]1[C@H](O)[C@H]2[C@@H](CN3C[C@@H](C)CC[C@H]3[C@@]2(C)O)[C@@H]2C[C@]34O[C@]5(O)[C@@H](OC(=O)[C@@](C)(O)CC)CC[C@@]3(C)[C@@H]5[C@@H](OC(C)=O)[C@@H](OC(C)=O)[C@H]4[C@@]21O [PROTOVERATRINE A] | 77.86 | 93.58
46 | CC[C@@H](C)C(=O)O[C@H]1[C@H](O)[C@H]2[C@@H](CN3C[C@@H](C)CC[C@H]3[C@@]2(C)O)[C@@H]2C[C@]34O[C@]5(O)[C@@H](OC(=O)[C@](C)(O)[C@@H](C)O)CC[C@@]3(C)[C@@H]5[C@@H](OC(C)=O)[C@@H](OC(C)=O)[C@H]4[C@@]21O [PROTOVERATRINE B] | 125.5 | 114.4
